Laboratory results reported in patent US9034859B2, “Sulfated oxysterol and oxysterol sulfation by hydroxysterol sulfotransferase promote lipid homeostasis and liver proliferation” (Virginia Commonwealth University, priority 2011, dated 2015).

Key:
[1] = HPLC analysis of serum lipoprotein profiles; format: in vivo, C57BL/6J female mice; settings: HFD mice, acute treatment
Protocol: Animal studies were approved by Institutional Animal Care and Use Committee of McGuire Veterans Affairs Medical Center and were conducted in accordance with the Declaration of Helsinki, the Guide for the Care and Use of Laboratory Animals, and all applicable regulations. […] All mice were housed under identical conditions in an aseptic facility and given free access to water and food. At the end of each period, the mice were intraperitoneally injected with vehicle solution (ethanol/PBS; […] Serum triglyceride, total cholesterol, high density lipoprotein-cholesterol, glucose, alkaline phosphatase (ALK), alanine aminotransferase (ALT), and aspartate aminotransferase (AST) were measured using standard enzymatic techniques in the clinical laboratory at McGuire Veterans Affairs Medical Center. Lipoprotein profiles in sera were analyzed by HPLC as following described. […] Fractions were collected for 1.2 min each. The cholesterol assay was performed using 180 μl of each fraction plus 20 μl of a 10× solution of Wako Total Cholesterol E Reagent (Wako Chemicals USA, Richmond, Va.) in a 96 well plate, incubated at 37° C. and read at 595 nm.

[2] = tested on: primary rat hepatocytes (PRH); test: Western blot in primary rat hepatocytes (Example 4); format: cell-based; settings: Ad-Control-infected group, T0901317 1.5 μM or 25HC 3 μM
Protocol: PRH were prepared as previously described (24). Briefly, parenchymal cells (3.5×10^6) were inoculated in 60-mm plastic Petri dishes coated with rat tail collagen. The plates contained 3 ml of Williams E culture media supplemented with thyroxine (1 μM), dexamethasone (0.1 μM), and penicillin (100 units/ml). Three hours after plating, culture medium was removed and fresh medium was added. Cells were then infected with Ad-SULT2B1b at a multiplicity (MOI) of 10 plaque forming units/cell (pfu/cell) or 100 nM of siRNA-SULT2B1b (ON-TARGET plus siRNA of rat SULT2B1b, Thermo Scientific Dharmacon, Lafayette, Colo.) as previously described (31). The Ad-Control and siRNA-Control (ON-TARGET plus negative control siRNA) were used as controls, respectively. Twenty four hours after infection, cells were treated with T0901317 (1.5 μM) or 25HC (3 μM) for another 24 hours. The cells were harvested at the timepoints as indicated in the text.
Cell lysates were prepared from frozen mouse liver tissues or PRH, and 50 μg of the total proteins were separated by 10% SDS-PAGE, transferred to polyvinylidene difluoride membrane (Millipore, Eschbom, Germany). Specific protein was probed with specific antibodies against PCNA, human SULT2B1b (Santa Cruz Biotechnology, Santa Cruz, Calif.), LXRα (Abcam, Cambridge, Mass.), ATP-binding cassette transporters 1 (ABCA1) (Abcam, Cambridge, Mass.), and SREBP1 (Santa Cruz Biotechnology, Santa Cruz, Calif.). β-Actin (Sigma-Aldrich, St. Louis, Mo.) was used as a loading control. Western analysis was performed by methods known in the art.

[3] = Pharmacokinetics and tissue biodistribution of radioactivity after i.v. injection; format: in vivo, C57BL/6 mice
Protocol: In a separate set of experiments, mice received an i.v. injection of [^3H]-25HC3S (1×10^6 cpm/mouse) and 25HC3S (5 mg/kg). At 4, 24, 48, and 96 h after the injection, mice were sacrificed, tissues (brain, heart, lung, liver, kidney, spleen, stomach, small intestine, skeletal muscle, and colon) were rapidly dissected and weighed, and the radioactivity was measured using a liquid scintillation counter with automatic decay correction (Beckman Counter, Atlanta, Ga.). Tissue values were calculated as a percentage of injected counts per gram of tissue (% IC/g). For pharmacokinetics, blood samples (30 μl) were collected at selected times after injection from 0 to 96 h via tail clip. Counts of radioactivity were expressed as IC/ml of blood.

[4] = Long-term treatment of HFD-fed mice: body mass, liver weight, plasma lipids, liver function; format: in vivo, C57BL/6J female mice
Protocol: Animal studies were approved by Institutional Animal Care and Use Committee of McGuire Veterans Affairs Medical Center and were conducted in accordance with the Declaration of Helsinki, the Guide for the Care and Use of Laboratory Animals, and all applicable regulations. To examine the effect of 25HC3S on diet-induced lipid accumulation in sera and liver, 8-week-old female C57BL/6J mice (Charles River, Wilmington, Mass.) were randomly assigned to three groups: the first control group was fed a chow diet; the high fat diet (HFD) group was fed a HFD (Harlan Teklad, Madison, Wis.) containing 42% kcal from fat, 43% kcal from carbohydrate, 15% kcal from protein and 0.2% cholesterol; and the high cholesterol diet (HCD) group was fed a 2% cholesterol diet with 18% kcal from fat, 58% kcal from carbohydrate and 24% kcal from protein for 10 weeks, respectively. All mice were housed under identical conditions in an aseptic facility and given free access to water and food. At the end of each period, the mice were intraperitoneally injected with vehicle solution (ethanol/PBS; Vehicle), 25HC (25 mg/kg), or 25HC3S (25 mg/kg) for 2 times and fasted over night for acute treatment (n=15-17 for each group) or once every three days for 6 weeks (n=16 for each group) and fasted 5 hrs for long-term treatment; and blood samples were collected. Serum triglyceride, total cholesterol, high density lipoprotein-cholesterol, glucose, alkaline phosphatase (ALK), alanine aminotransferase (ALT), and aspartate aminotransferase (AST) were measured using standard enzymatic techniques in the clinical laboratory at McGuire Veterans Affairs Medical Center. Lipoprotein profiles in sera were analyzed by HPLC as following described.

[5] = i.v. [3H]-25HC3S and 25HC3S 5 mg/kg

Compound | cholesterol contents in LDL and HDL fractions [1] | triglyceride contents in LDL fractions [1] | LXR response gene expressions [2] | PCNA expression [2] | LDL, VLDL, and HDL protein levels [1] | cholesterol contents in HDL fractions [1] | triglyceride contents in VLDL fractions [1] | maximum level of 3H-radioactivity in blood ([3]; i.v. [3H]-25HC3S (1×10^6 cpm/mouse) and 25HC3S 5 mg/kg) [% IC/g] | time at which blood 3H-radioactivity decreased to the half level [3, 5] [h] | time of maximum 3H-radioactivity in blood [3, 5] [h] | clearance ([3]; i.v., blood radioactivity) | time of highest uptake of 3H-radioactivity in most organs ([3]; i.v., measured at 4, 24, 48 and 96 h) [h] | liver weight ([4]; 6 weeks injection, fasted 5 hrs) | body mass ([4]; i.p. once every three days, 6 weeks, control kept increasing) | serum ALK, ALT and AST levels ([4]; long-term treatment) | plasma triglyceride level ([4]; long-term treatment (data not shown)) | plasma cholesterol level ([4]; long-term treatment, compared to vehicle (data not shown))
C[C@H](CCCC(C)(C)O)[C@H]1CC[C@H]2[C@@H]3CC=C4C[C@@H](O)CC[C@]4(C)[C@H]3CC[C@]12C [25HC, 25-hydroxycholesterol] | significantly increased | significantly increased | significantly increased | decreased | – | – | – | – | – | – | – | – | – | – | – | – | –
CC(CCCC(C)(C)O)C1CCC2C3CC=C4CC(OS(=O)(=O)O)CCC4(C)C3CCC12C (centres unmarked) [25HC3S, 25-hydroxycholesterol-3-sulfate] | – | – | – | – | did not change | slightly decreased | markedly decreased | 7 | 48 | 1 | slow clearance | 4 | significantly decreased | stopped increasing body mass | significantly reduced | did not significantly decrease | significantly decreased
